Data on six molecules can be found in patent publication US20230213525A1, “DETECTING MICROBIAL INFECTION IN WOUNDS” (QUALIZYME DIAGNOSTICS GMBH & CO KG, priority 2016, published 2023).

The structures appear in SMILES notation.

Holding throughout (type): biochemical
In assay [1] the target is T1, MPO (Homo sapiens, UniProt P05164).
T1 sequence (P05164 49-745): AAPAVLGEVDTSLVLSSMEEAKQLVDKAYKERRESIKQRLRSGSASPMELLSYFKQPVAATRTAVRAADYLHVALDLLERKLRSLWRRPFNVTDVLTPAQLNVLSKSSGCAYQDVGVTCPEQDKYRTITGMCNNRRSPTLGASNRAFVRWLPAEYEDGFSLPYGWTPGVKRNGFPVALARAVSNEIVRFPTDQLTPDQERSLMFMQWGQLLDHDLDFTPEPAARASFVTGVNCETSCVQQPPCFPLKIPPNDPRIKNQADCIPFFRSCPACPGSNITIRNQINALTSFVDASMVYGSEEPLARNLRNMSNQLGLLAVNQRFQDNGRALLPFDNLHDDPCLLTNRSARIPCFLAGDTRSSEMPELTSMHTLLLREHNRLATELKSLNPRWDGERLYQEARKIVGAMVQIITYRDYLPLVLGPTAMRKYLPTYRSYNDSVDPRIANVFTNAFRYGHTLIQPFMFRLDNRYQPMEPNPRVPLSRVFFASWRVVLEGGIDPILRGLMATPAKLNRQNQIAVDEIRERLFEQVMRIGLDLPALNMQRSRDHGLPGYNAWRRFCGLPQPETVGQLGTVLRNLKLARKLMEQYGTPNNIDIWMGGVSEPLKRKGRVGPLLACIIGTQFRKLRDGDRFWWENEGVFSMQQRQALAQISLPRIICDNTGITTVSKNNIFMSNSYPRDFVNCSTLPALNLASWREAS
Put plainly: Colorimetric enzyme assay for detection of myeloperoxidase activity. The conditions noted are these: 1 mg/mL, pH 6.4, 5 mM H2O2.

The test system of assay [2] is Phospholipase A2. The assay can be described thus: Phospholipase A2 based test, liquid system, wound fluid. The conditions noted are these: room temperature, 30 minutes. As for the experimental part: Preparation of diagnostic system. For this diagnostic tool, 4-Nitro-3- octanoylbenzoic acid as Phospholipase A2 - substrate was used. 4-Nitro-3-octanoylbenzoic acid (1.7 mM) is dissolved in assay buffer containing 50 mM Tris/HCl buffer pH 7.2, 150 mM KCL and 10 mM CaC12. 190 µl of the buffer are pipetted into a microtiterplate.
(§1) This mixture is incubated at room temperature for 30 minutes.

The subject of assay [3] is Phospholipase A2. Put plainly: Phospholipase A2 based test, liquid system, sputum. The conditions noted are these: room temperature, 30 minutes. The protocol:
For this diagnostic tool, 4-Nitro-3-octanoylbenzoic acid as Phospholipase A2 - substrate was used. 4-Nitro-3-octanoylbenzoic acid (1.7 mM) is dissolved in assay buffer containing 50 mM Tris/HCl buffer pH 7.2, 150 mM KCL and 10 mM CaC12. 190 µl of the buffer are pipetted into a microtiterplate.
as §1

The target in assay [4] is T2, Myeloperoxidase (Homo sapiens, UniProt P05164).
T2 sequence (P05164 49-745): T1 sequence (P05164 49-745)
Put plainly: Myeloperoxidase based test, cellulose based system, sputum. The conditions noted are these: filter paper discs, H202, 5 minutes. As for the experimental part: 1.5 µl of H202 (50 mM) and 1.5 µl of the substrates (109 mM ABTS, 454 mM TMB, 230 mM Fast Blue, x mM Guaiacol, x mM 4-Amino-3-methoxy benzoic acid) were incubated on small Whatmann Filterpaper discs.

For assay [5], the system named is Catalase. The assay can be described thus: Catalase based test, liquid system, wound fluid. The conditions noted are these: room temperature, 30 minutes. The protocol: For this diagnostic tool: Purpald as substrate for Catalase was used. Purpalt is dissolved in water (50-100 mM). 200 µl of substrate solution are pipetted into a microtiterplate.
as §1

Assay [6] deals with Catalase. The assay can be described thus: Catalase based test, liquid system, sputum. The conditions noted are these: room temperature, 30 minutes. The protocol:
For this diagnostic tool: Purpald as substrate for catalase was used. Purpalt is dissolved in water (50-100 mM?). 200 µl of substrate solution are pipetted into a microtiterplate.
as §1

The target in assay [7] is T2, Myeloperoxidase. Put plainly: Myeloperoxidase based test, liquid system, sputum. The conditions noted are these: succinate buffer pH 5.4, H202, 5 minutes.
In assay [8] the test system is Phospholipase C. Put plainly: Phospholipase C based test, liquid system, wound fluid. The conditions noted are these: room temperature, 30 minutes, visual inspection. The protocol: For this diagnostic tool, p-Nitrophenylphosphorylcholine as substrate for Phospholipase C was used. p-Mtrophenylphosphorylcholine is dissolved in water (50-100 mM). A 250 mM: Tris/HCi buffer with 70% Sorbitol pH 7.2 was used as assay buffer. 230 µl of the buffer and 100 µl of the substrate are pipetted into a microtiterplate.
as §1

Where [9] appears, read: infected wound fluid samples A, B, C.
[10] abbreviates: non infected wound fluid samples D, E, F.
The mark [11] stands for this setting: infected sputum samples A, B, C.
Setting [12] is: non infected sputum samples D, E, F.

Regarding `Nc1ccc(C(=O)O)cc1N` [3,4-Diamino benzoic acid], the “colour of solution upon MPO oxidation” value in assay [1] is “turned brownish”.

Take `CCCCCCCC(=O)c1cc(C(=O)O)ccc1[N+](=O)[O-]` [4-Nitro-3-octanoylbenzoic acid]: the Test response result is recorded as “yellow” in assay [2] (setting [9]), “No colour change” in assay [2] (setting [10]), “yellow” in assay [3] (setting [11]) and “No colour change” in assay [3] (setting [12]).

As for `COc1cc(C(=O)O)ccc1N` [Compound 4A3Mba, 4-Amino-3-methoxy benzoic acid], the Test response entry in assay [4] (infected sputum samples A, B) is listed as “brown”; in assay [4] (non infected sputum samples C, D) it was “No colour change”.

For `NNc1n[nH]c(=S)n1N` [Purpald], the Test response result in assay [5] (setting [9]) is “yellow”; in assay [5] (setting [10]) it was “No colour change”; in assay [6] (setting [11]), “yellow”; in assay [6] (non-infected sputum samples D, E, F), “No colour change”.

With `Cc1cc(-c2cc(C)c(N)c(C)c2)cc(C)c1N` [TMB, 3, 3′, 5, 5′ -Tetramethylbenzidine], the Test response entry in assay [7] (setting [11]) is on record as “blue”; in assay [7] (setting [12]) it was “No colour change”.

As to `C[N+](C)(C)CCOP(=O)([O-])Oc1ccc([N+](=O)[O-])cc1` [p-Nitrophenylphosphorylcholine], the Test response result in assay [8] (setting [9]) is listed as “yellow”; in assay [8] (non-infected wound fluid samples D, E, F) it was “No colour change”.
